The source of these data is patent EP1914237B1 (priority 1999, dated 2001).

Like-named read-outs stand apart in the source and are kept apart here.

Series [1] is described as follows: Cytotoxicity of test compounds in vitro in MRC-5 cells (visual estimate of cell number). Format: cell-based, human. To be noted: human, mrc-5 cells; Table 2; MRC-5, 5 days at 37°C. The procedure: (§1) Cytotoxicity of test compounds in vitro: Subconfluent human lung fibroblast cells (MRC-5, American Type Culture Collection, Rockville, MD) in 24-well plates were treated with drugs diluted in E-MEM (Gibco BRL, Grand Island, NY) supplemented with 2% fetal bovine serum and antibiotics. After 5 days of incubation at 37°C, the cell monolayer was visually inspected under magnification and the concentration of drug which caused a 50% reduction in cell number was estimated.

The nature of series [2]: Cytotoxicity by the method of Hostetler et al. (HIV study). Format: cell-based. The following applies: human, ht4-6c cells; Table 6; cell line of the cytotoxicity test not stated.
Series [3] deals with HCMV.
Series [4] concerns HIV-1.
The subject of series [5] is HCMV. The experiment in a line: microbe, parasite or virus in culture. To be noted: Human betaherpesvirus 5, MRC5.
The subject of series [6] is HIV-1. The experiment in a line: microbe, parasite or virus in culture. The following applies: Human immunodeficiency virus 1.
The test system of series [7] is human lung fibroblast cells (MRC-5). The experiment in a line: Cytotoxicity of test compounds in vitro in MRC-5 cells (visual estimate of cell number). Format: cell-based. The method, then: as §1
In a further series the test system is Vaccinia. The experiment in a line: microbe, parasite or virus in culture. It counts as cell-based. The following applies: read-out: EC50, µM Vaccinia.
Another series deals with Cowpox. The experiment in a line: organism not typed. It counts as cell-based. To be noted: read-out: EC50, µM Cowpox.
In series [8] the test system is Variola Major, Bangladesh. In words: organism not typed. It counts as cell-based. To be noted: read-out: EC50, µM Variola Major, Bangladesh.
For a further series, the system named is Variola Major, Yamada. Format: cell-based. The following applies: Table 4; Vero cells; average of 3 determinations.
Another series has as its system Variola Minor, Garcia. Format: cell-based. The following applies: Table 4; Vero cells; average of 3 determinations.
A further series has as its system Vero cells. To be noted: monkey.
A further series has as its system Humans with Osteoporosis. To be noted: postmenopausal women, oral 0.1 to 100 mg/kg/day, two to three years; versus placebo.
For the next series, the system named is HSV-1. The experiment in a line: microbe, parasite or virus in culture. Format: cell-based.
The test system of the next series is Calvarial cells. The experiment in a line: Dexamethasone-induced apoptosis in calvarial cells (trypan blue uptake). Format: cell-based, neonatal C57BL/6J mice. To be noted: pretreated 1 hour, then 6 hours with 10^-4 dexamethasone; p=<0.05.
Another series deals with MLO-Y4 osteocytic cells. To be noted: pretreated 1 hour, then 6 hours with 10^-4 M dexamethasone; percentage of dead cells; p<0.05.
The subject of the next series is Ovariectomized Rats. The following applies: subcutaneous 0 to 8 mg /kg/day, four to twelve weeks; versus ovariectomized controls.
A further series relates to vaccinia virus. In words: microbe, parasite or virus in culture. Format: cell-based. The following applies: Orthopoxvirus vaccinia, HFF; for IC50: read-out: IC50 against vaccinia virus; for EC50: read-out: Vaccinia EC50, µM.
For another series, the system named is cowpox virus. In words: microbe, parasite or virus in culture. Format: cell-based. To be noted: for IC50: read-out: IC50 in cowpox infected cells.
In the next series the test system is HFF Cells. To be noted: human.
A short description of another series: in vitro. To be noted: monkey, vero cells.
The next series deals with CEM. In words: Cytotoxicity in CEM cells. To be noted: read-out: CEM, CC50; Table 1; rapidly dividing cells.
Series [9] has as its system Humans with Steroid-Induced Osteoporosis. The experiment in a line: Stimulation of bone formation in humans with steroid-induced osteoporosis. It counts as in vivo. To be noted: oral 0.1 to 100 mg/kg/day, one month to one year; versus placebo.
[10] abbreviates: Table 7, assessed as described in Example 17, 7200 min.
The mark [11] stands for this setting: Table 4, Vero cells, average of 3 determinations.
[12] abbreviates: Cowpox virus, HFF, read-out: Cowpox, EC50, µM.
Where [13] appears, read: Table 1, against HCMV, CC50 in CEM cells.

By CC50 is commonly meant the concentration that lowers cell viability or growth by half. By EC50 is commonly meant the concentration that produces a half-maximal response. Regarding `CCCCCCCCCCCCCCCCOCCCOP(=O)(O)COCCn1cnc2c(N)ncnc21` [HDP-Adefovir], the CC50 at 120 h in [1] was 6.5 µM. In [2], it took 6.5 µM to reach half-maximal cytotoxicity (CC50). Further, the figures for the “Selectivity Index” value in the series on HCMV [3] and in the series with HIV-1 [4] were 65 and 813, respectively. Besides, the “EC50,µM” value in the series with HIV-1 [4] was “more active and selective than adefovir”. Moreover, the EC50 with HCMV [5] is 0.1 µM; in the series on HIV-1 [6], 0.008 µM.

For `CCCCCCCCCCCCCCCCOCCCOP(=O)(O)CO[C@H](CO)Cn1ccc(N)nc1=O` [HDP-CDV], the CC50 is 10 µM in [7] (Table 2, MRC-5, 5 days at 37°C); 10 µM in series [7] (setting [10]); > 0.1 µM in the series on Vero cells. In addition, the concentration for a half-maximal effect (EC50) in the series on Vaccinia (setting [11]) is < 0.03 µM; in the series on Cowpox (setting [11]) it was < 0.03 µM; in series [8] (setting [11]) it was 0.0015 µM; in the series on Variola Major, Yamada, 0.0015 µM; with Variola Minor, Garcia it was 0.0006 µM; with HCMV [3], 0.002 nM.

With “1-O-octadecyl-sn-glyceryl-3-adefovir [1-O-octadecyl-sn-glycero-3-ADV]”, the concentration for a half-maximal effect (EC50) with HCMV [3] is 210 nM.

`CCCCCCCCCCCCCCCCCCOCCCOP(=O)(O)C(O)(CCCN)P(=O)(O)O` (stereo not drawn) [1-O-octadecyloxypropyl alendronate, 1-O-octadecyloxypropyl-alendronate]: in the series with Humans with Osteoporosis, the fractures result is reported as “fewer fractures” and the “rate of reduction in bone density” value is “a lesser rate of reduction in bone density than the placebo group”.

Regarding `CCCCCCCCCCCCCCCCCCOCCOP1(=O)COC(Cn2ccc(N)nc2=O)CO1` (stereo not drawn) [1-O-octadecylethanediol-2-cCDV], the CC50 in [7] (Table 2, MRC-5, 5 days at 37°C) is 320 µM; in series [7] (setting [10]), 320 µM. In addition, the values for the EC50 in the series on HSV-1 (read-out: EC50) and in the series with HCMV [3] were 0.008 µM and 0.3 nM, respectively.

`CCCCCCCCCCCCCCCCCCOCCOP(=O)(O)COC(CO)Cn1ccc(N)nc1=O` (stereo not drawn) [1-O-octadecylethanediol-2-CDV]: the CC50 in series [7] (Table 2, MRC-5, 5 days at 37°C) is 210 µM; in [7] (setting [10]), 210 µM. For the same compound, the EC50 in the series with HSV-1 (read-out: EC50) was 0.002 µM.

For the compound `CCCCCCCCCCCCCCCCOCCCOP(=O)(O)C(O)(CCCN)P(=O)(O)O` (stereo not drawn) [HDP-alendronate, 1-O-hexadecylpropanediol-3-alendronate], in the series on Calvarial cells, the “concentration at which the dexamethasone-induced increase in % dead cells is abolished” value is ≥ 10^-8. In the series on MLO-Y4 osteocytic cells, the “concentration at which dexamethasone-induced apoptosis is inhibited” value was 10^-8 to 10^-5 M. For the same compound, the “bone mass loss (ash weight of the femora)” value in the series on Ovariectomized Rats is given as “less bone mass loss than the ovariectomized controls”.

`CCCCCCCCCCCCCCCCOP1(=O)COC(Cn2ccc(N)nc2=O)CO1` (stereo not drawn) [Hexadecyl-cCDV]: the CC50 in series [7] (Table 2, MRC-5, 5 days at 37°C) is 6.5 µM. In addition, in the series on HCMV [3], the EC50 is 40 nM.

As to `CCCCCCCCCCCCCCCCCCOCCCOP1(=O)COC(Cn2ccc(N)nc2=O)CO1` (stereo not drawn) [1-O-octadecylpropanediol-3-cCDV], the CC50 was 320 µM in series [7] (Table 2, MRC-5, 5 days at 37°C) and 320 µM in series [7] (setting [10]). The values for the EC50 in the series with HSV-1 (read-out: EC50) and in the series on HCMV [3] were 0.33 µM and 0.3 nM, respectively.

A word on the IC50: it is the concentration needed to halve the response being measured. With `Nc1ccn(C[C@@H](CO)OCP(=O)(O)O)c(=O)n1` [CDV, cidofovir], the CC50 in series [7] (Table 2, MRC-5, 5 days at 37°C) is > 1000 µM; in [7] (setting [10]), > 1000 µM; with HFF Cells it was 89.8 µM; in “in vitro” it was > 100 µM; in the series on CEM it was 857 µM. For the same compound, the IC50 in the series on vaccinia virus was 1.8 µM; in the series on cowpox virus (Cowpox virus, HFF), 2.1 µM. For the same compound, the EC50 in the series with vaccinia virus came to 1.8 µM; in the series with cowpox virus (setting [12]), 2.1 µM; in the series on Vaccinia (Orthopoxvirus vaccinia, Vero), 2.2 µM; in the series on Cowpox (Vero) it was 3.8 µM; in series [8] (Vero), 100 µM; in the series on HSV-1 (Human alphaherpesvirus 1, MRC5), 1.2 µM. Also, the 50% effective concentration (EC50) in the series on HCMV [5] came to 0.46 µM. The “Selectivity Index” value with HCMV [3] (setting [13]) is 1,900.

Regarding “1-O-octadecyloxypropyl-amino-olpadronate”, in [9], the bone density entry is “bone density is increased” and the fractures entry is “fractures are decreased”.

For the compound `Nc1ccn(C[C@H]2COP(=O)(O)CO2)c(=O)n1` [cCDV, cyclic cidofovir], the CC50 in series [7] (Table 2, MRC-5, 5 days at 37°C) was > 1000 µM; in series [7] (setting [10]) it was > 1000 µM; with HFF Cells, > 100 µM; in the series with Vero cells it was > 100 µM; in the series on CEM, > 1000 µM. The IC50 in the series with vaccinia virus came to 0.97 µM; in the series with cowpox virus (Cowpox virus, HFF), 0.72 µM. Moreover, the concentration giving a half-maximal response (EC50) in the series with vaccinia virus is 0.97 µM; in the series with cowpox virus (setting [12]), 0.72 µM; in series [8] (Vero) it was 100 µM; in the series on HSV-1 (Human alphaherpesvirus 1, MRC5) it was 2.1 µM; in the series with HCMV [5] it was 0.47 µM. The “Selectivity Index” value with HCMV [3] (setting [13]) is recorded as >2,100.

In the case of `CCCCCCCCCCCCCCCCOCCCOP1(=O)COC(Cn2ccc(N)nc2=O)CO1` (stereo not drawn) [HDP-cCDV, 1-O-hexadecylpropanediol-3-cyclic CDV], the CC50 was 320 µM in series [7] (Table 2, MRC-5, 5 days at 37°C); 320 µM in series [7] (setting [10]); > 100 µM in the series on HFF Cells; > 0.1 µM with Vero cells; 30 µM in the series on CEM. Besides, the EC50 was < 0.03 µM in the series on cowpox virus (Table 3, preliminary, HFF cells, CPE reduction, read-out: Cowpox, EC50); < 0.03 µM with Cowpox (setting [11]); > 0.01 µM in [8] (setting [11]); 0.03 µM in the series with HSV-1 (read-out: EC50); 0.3 nM in the series with HCMV [3]; 0.5 nM with HCMV [3] (read-out: HCMV EC50). Moreover, the IC50 in the series with cowpox virus (Table 3) is < 0.03 µM.

For the compound `CCCCCCCCCCCCCCCCCCOCCCOP(=O)(O)CO[C@H](CO)Cn1ccc(N)nc1=O` [1-O-octadecylpropanediol-3-CDV], the CC50 in series [7] (Table 2, MRC-5, 5 days at 37°C) is 32 µM; in [7] (setting [10]), 32 µM. Also, the EC50 was 0.003 µM in the series on HSV-1 (read-out: EC50) and 0.03 nM in the series on HCMV [3].
